# Assay results taken from patent US10849907B2, “Imidazopyridine derivatives and the use thereof as medicament” (Boehringer Ingelheim International GmbH, priority 2017, dated 2020).
# Tests used:
# NMDA NR1/NR2B receptor = molecular target: T1, NMDA NR1/NR2B receptor (Homo sapiens, UniProt Q05586+Q13224); assay: In vitro NMDA NR1/NR2b cell assay (FLIPR, intracellular calcium induced by glycine/glutamate); format: cell-based; details: HEK293 cells expressing NMDA NR1/NR2B, 20 μM glycine, 1 μM glutamate, compounds of the invention (Table 1)
# T1 construct: host or cells: HEK293, tetracycline-inducible expression
# T1 sequence (Q13224 27-1484, other chains not shown): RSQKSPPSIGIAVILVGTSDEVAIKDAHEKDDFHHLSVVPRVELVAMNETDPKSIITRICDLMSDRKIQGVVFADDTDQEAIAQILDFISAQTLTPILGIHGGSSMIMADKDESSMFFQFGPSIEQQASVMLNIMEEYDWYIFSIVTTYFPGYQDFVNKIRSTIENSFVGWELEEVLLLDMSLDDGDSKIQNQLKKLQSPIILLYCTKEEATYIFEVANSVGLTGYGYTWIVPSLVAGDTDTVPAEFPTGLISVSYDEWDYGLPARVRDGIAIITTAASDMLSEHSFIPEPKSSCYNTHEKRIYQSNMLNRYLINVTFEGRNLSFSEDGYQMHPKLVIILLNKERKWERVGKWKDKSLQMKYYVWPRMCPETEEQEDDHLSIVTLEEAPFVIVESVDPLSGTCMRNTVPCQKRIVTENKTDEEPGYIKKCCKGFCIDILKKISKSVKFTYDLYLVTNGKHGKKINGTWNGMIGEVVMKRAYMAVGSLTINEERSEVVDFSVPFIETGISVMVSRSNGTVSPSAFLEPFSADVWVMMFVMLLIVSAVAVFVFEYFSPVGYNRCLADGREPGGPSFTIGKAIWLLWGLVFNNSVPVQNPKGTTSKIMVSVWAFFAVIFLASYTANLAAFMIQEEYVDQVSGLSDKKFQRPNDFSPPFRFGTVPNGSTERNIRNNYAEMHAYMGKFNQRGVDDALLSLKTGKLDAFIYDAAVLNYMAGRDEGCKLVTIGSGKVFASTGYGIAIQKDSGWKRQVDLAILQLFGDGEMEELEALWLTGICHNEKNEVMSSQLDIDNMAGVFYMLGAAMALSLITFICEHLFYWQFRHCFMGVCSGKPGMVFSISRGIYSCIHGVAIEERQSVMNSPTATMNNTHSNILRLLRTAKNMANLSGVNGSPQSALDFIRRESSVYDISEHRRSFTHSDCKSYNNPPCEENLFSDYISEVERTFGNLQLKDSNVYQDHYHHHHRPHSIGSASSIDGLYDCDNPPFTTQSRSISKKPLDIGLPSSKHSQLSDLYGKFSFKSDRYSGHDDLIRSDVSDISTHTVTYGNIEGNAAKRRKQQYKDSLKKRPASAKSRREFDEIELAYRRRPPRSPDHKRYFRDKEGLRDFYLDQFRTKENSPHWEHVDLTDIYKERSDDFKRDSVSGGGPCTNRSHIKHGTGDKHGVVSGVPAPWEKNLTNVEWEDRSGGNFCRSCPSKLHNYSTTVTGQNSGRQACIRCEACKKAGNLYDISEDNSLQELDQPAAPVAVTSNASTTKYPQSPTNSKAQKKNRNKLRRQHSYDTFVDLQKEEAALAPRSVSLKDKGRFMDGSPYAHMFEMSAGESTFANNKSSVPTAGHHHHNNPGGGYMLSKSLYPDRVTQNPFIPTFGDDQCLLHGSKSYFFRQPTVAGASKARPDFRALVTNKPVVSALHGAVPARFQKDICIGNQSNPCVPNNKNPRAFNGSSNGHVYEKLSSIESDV
# Experimental: A human HEK293 cell line with tetracyclin-inducible expression of NMDA NR1/NR2B receptor was used as a test system for compound efficacy and potency. The cell line was purchased from ChanTest, Catalog # CT6121. Compound activity was determined by measuring the effect of compounds on intracellular calcium concentration induced by glycine/glutamate agonism in a FLIPRtetra system (Molecular Devices).
# The cells were obtained as frozen cells in cryo-vials and stored until use at −150° C. Cells were grown in culture medium (DMEM/F12, 10% FBS, 5 μg/mL Blasticidin, 150 μg/mL Zeozin, 500 μg/mL Geneticin). […] For sub-culturing the cells were detached from flasks by Versene. For the assay, cells were detached, washed twice with induction medium (DMEM/F12 without glutamine, 10% FBS, 2 μg/mL Tetracycline, 2 mM Ketamine) and seeded to 384 well pure coat amine plates (BD 359324, 50000 cells per well in 50 μl) 48 h prior to assay in induction medium.
# The test compounds were dissolved in 100% DMSO at a concentration of 10 mM and in a first step diluted in DMSO to a concentration of 5 mM, followed by serial dilution steps in 100% DMSO. Dilution factor and number of dilution steps may vary according to needs. Typically 8 different concentrations by 1:5 dilutions were prepared in duplicate, further intermediate dilutions (1:37.5) of the substances were carried out with aqueous assay buffer (137 mM NaCl, 4 mM KCl, 1.8 mM CaCl, 10 mM HEPES, 10 mM Glucose, pH 7.4) resulting in a compound concentration 3 times above the final test concentration and DMSO at 2.7% resulting in 0.9% final DMSO concentration in the assay.
# At the assay day cells were washed 3× with assay puffer, 10 μL buffer remained in the wells after washing. 10 μL Ca kit loading buffer (AAT Bioquest) was added to the cells and the plates were incubated with lid for 60 minutes at r.t. 20 μl assay buffer containing 60 μM glycine (20 μM final) and 3 μM glutamate (1 μM final) was added to column 1-23. Fluorescence (indicating the calcium influx as a result of the NR1/NR2B ion channel activation) was read on the FLIPRtetra device for 60 seconds to monitor the glutamate induced effects. After 2 minutes 20 μL of compound or controls (row 1-22) in assay buffer were carefully added to the wells. […] The average of 2 measurements at 5 minutes and 5 min 10 seconds after compound addition is calculated and further used for IC50 calculations. Each assay microtiter plate contained wells (in column 23 or 24) with DMSO controls instead of compound as controls for glycine/glutamate induced fluorescence (high controls) and wells with 1 μM of a reference NR2b NAM as low controls (Compound 22; reference: Layton, Mark E et al, ACS Chemical Neuroscience 2011, 2(7), 352-362).
# The output file of the reader contains the well number and measured average fluorescence units. For data evaluation and calculation, the measurement of the low control was set as 0% control and the measurement of the high control was set as 100% control. The IC50 values were calculated using the standard 4 parameter logistic regression formula. Calculation: [y=(a−d)/(1+(x/c)^b)+d], a=low value, d=high value; x=conc M; c=IC50 M; b=slope.
# [1] = Metabolic stability in pooled human liver microsomes; format: in vitro ADME; details: pH 7.6; pooled human liver microsomes 1 mg/mL, 1 μM compound, 37° C., NADPH; read-out: Half-life - t½ human liver microsomes
# From the text: Stability in human liver microsomes refers to the susceptibility of compounds to biotransformation in the context of selecting and/or designing drugs with favorable pharmacokinetic properties. The primary site of metabolism for many drugs is the liver. Human liver microsomes contain the cytochrome P450s (CYPs), and thus represent a model system for studying drug metabolization in vitro. Enhanced stability in human liver microsomes is associated with several advantages, including increased bioavailability and adequate half-life, which can enable lower and less frequent dosing of patients. Thus, enhanced stability in human liver microsomes is a favorable characteristic for compounds that are to be used for drugs.
# The metabolic degradation of the test compound was assayed at 37° C. with pooled human liver microsomes. The final incubation volume of 60 μl per time point contains TRIS buffer pH 7.6 at room temperature (0.1 M), magnesium chloride (5 mM aqueous solution), microsomal protein (1 mg/mL for human) and the test compound at a final concentration of 1 μM. Following a short preincubation period at 37° C., the reactions were initiated by addition of betanicotinamide adenine dinucleotide phosphate, reduced form (NADPH, 1 mM), and terminated by transferring an aliquot into solvent after different time points. After centrifugation (10000 g, 5 min), an aliquot of the supernatant was assayed by LC-MS/MS for the amount of parent compound. The half-life was determined by the slope of the semi-logarithmic plot of the concentration-time profile.
# human MDR1 (P-gp) = molecular target: T2, human MDR1 (P-gp) (Homo sapiens, UniProt P08183); assay: MDCK assay MDR-1 (p-GP): permeability across MDCK-MDR1 monolayers; format: in vitro ADME; details: for Papp A→B: MDCK-MDR1 monolayers, apical-to-basal, pH 7.4, 1 or 10 μM; for efflux ratio: pH 7.4, MDCK-MDR1, Papp (b-a) divided by Papp (a-b)
# T2 construct: expressed in transfected cells; host or cells: MDCKII (Madin-Darby canine kidney) cells
# T2 sequence (P08183 whole entry): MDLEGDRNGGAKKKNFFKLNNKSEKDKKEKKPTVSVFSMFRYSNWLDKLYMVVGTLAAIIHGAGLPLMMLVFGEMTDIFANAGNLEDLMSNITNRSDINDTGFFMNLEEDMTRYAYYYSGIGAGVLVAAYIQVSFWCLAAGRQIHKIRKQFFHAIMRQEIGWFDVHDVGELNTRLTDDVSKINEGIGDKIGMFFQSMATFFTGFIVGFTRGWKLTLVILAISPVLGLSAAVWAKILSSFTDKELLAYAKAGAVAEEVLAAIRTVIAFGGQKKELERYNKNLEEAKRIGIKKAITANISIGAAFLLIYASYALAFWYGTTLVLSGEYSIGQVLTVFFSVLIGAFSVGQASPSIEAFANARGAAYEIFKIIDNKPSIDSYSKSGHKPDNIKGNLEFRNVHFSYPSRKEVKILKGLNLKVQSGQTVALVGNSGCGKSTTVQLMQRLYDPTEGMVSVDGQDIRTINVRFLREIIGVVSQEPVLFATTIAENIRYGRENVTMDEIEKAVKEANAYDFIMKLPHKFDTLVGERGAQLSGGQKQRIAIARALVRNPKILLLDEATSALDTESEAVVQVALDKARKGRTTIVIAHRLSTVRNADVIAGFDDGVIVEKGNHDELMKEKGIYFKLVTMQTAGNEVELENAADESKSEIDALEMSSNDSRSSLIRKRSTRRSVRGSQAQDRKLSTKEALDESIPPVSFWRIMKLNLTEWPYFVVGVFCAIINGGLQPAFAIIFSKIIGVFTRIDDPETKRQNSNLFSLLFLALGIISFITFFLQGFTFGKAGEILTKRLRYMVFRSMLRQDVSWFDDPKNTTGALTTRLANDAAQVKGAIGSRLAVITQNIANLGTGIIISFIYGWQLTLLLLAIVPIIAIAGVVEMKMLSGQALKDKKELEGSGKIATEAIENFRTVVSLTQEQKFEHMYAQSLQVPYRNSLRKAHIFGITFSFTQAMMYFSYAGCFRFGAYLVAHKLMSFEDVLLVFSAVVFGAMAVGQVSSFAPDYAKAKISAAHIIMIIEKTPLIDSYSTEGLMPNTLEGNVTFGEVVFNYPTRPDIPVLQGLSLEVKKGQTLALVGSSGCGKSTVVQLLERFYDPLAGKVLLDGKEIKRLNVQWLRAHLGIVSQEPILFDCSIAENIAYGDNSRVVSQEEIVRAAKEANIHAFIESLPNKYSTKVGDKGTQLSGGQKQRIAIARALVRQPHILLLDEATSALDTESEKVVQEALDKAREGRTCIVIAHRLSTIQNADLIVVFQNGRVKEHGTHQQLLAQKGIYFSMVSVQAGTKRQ
# Experimental: The MDCK assays provide information on the potential of a compound to pass the blood brain barrier. Permeability measurements across polarized, confluent MDCK-MDR1 cell monolayers grown on permeable filter supports are used as an in vitro absorption model: apparent permeability coefficients (PE) of the compounds across the MDCK-MDR1 cell monolayers are measured (pH 7.4, 37° C.) in apical-to-basal (AB) and basal-to-apical (BA) transport direction. The AB permeability (PEAB) represents drug absorption from the blood into the brain and the BA permeability (PEBA) drug efflux from the brain back into the blood via both, passive permeability as well as active transport mechanisms mediated by efflux and uptake transporters that are expressed on the MDCK-MDR1 cells, predominantly by the overexpressed human MDR1. Identical or similar permeabilities in both transport directions indicate passive permeation, vectorial permeability points to additional active transport mechanisms. Higher PEBA than PEAB (PEBA/PEAB >5) indicates the involvement of active efflux mediated by MDR1, which might compromise the goal to achieve sufficient brain exposure. Therefore, this assay provides valuable support for selection of compounds applicable for further in vivo testing. High permeability not limited by efflux at the blood brain barrier is a favourable characteristic for compounds that are to be used for drugs acting primarily in the CNS. Similar concepts are applicable to the MDCK BCRP assay and its interpretation; consequently, to ensure high permeability at the blood brain barrier, it is highly preferred to minimize the efflux (efflux <5) at both MDR1 and BCRP transporters.
# Apparent permeability coefficients (Papp) of the compounds across the MDCK-MDR1 monolayers (MDCKII cells transfected with human MDR1 cDNA expression plasmid) are measured in apical-to-basal (AB) and basal-to-apical (BA) direction.
# MDCK-MDR1 cells (6×10^5 cells/cm^2) are seeded on filter inserts (Corning, Transwell, polycarbonate, 0.4 μm pore size) and cultured for 9 to 10 days. Compounds dissolved in DMSO stock solution (1-20 mM) are diluted with HTP-4 aqueous buffer (128.13 mM NaCl, 5.36 mM KCl, 1 mM MgSO4, 1.8 mM CaCl2, 4.17 mM NaHCO3, 1.19 mM Na2HPO4, 0.41 mM NaH2PO4, 15 mM HEPES, 20 mM glucose, pH 7.4) supplemented with 0.25% BSA to prepare the transport solutions (final concentration: 1 or 10 μM, final DMSO <=0.5%). The transport solution is applied to the apical or basolateral donor side for measuring A-B or B-A permeability, respectively. The receiver side contains HTP-4 buffer supplemented with 0.25% BSA. Samples are collected at the start and end of experiment from the donor and at various time intervals for up to 2 hours also from the receiver side for concentration measurement by HPLC-MS/MS. Sampled receiver volumes are replaced with fresh receiver solution. Efflux ratio is calculated dividing the Papp (b-a) values by the Papp (a-b) values.
IC50 (NMDA NR1/NR2B receptor),half-life at 1 µM [1],Papp A→B (human MDR1 (P-gp)),efflux ratio (human MDR1 (P-gp)),Compound
748 nM,–,–,–,O=C(OCc1ccc(F)c(F)c1)N1CCO[C@H](c2nc3cccnc3[nH]2)C1 [Example 24]
477 nM,–,–,–,O=C(OCc1ccc(Cl)c(F)c1)N1CCO[C@H](c2nc3cccnc3[nH]2)C1 [Example 25]

# The next lines start with the compound.
Compound,IC50 (NMDA NR1/NR2B receptor),half-life at 1 µM [1],Papp A→B (human MDR1 (P-gp)),efflux ratio (human MDR1 (P-gp))
Cc1cc(F)ccc1COC(=O)N1CCO[C@H](c2nc3cccnc3[nH]2)C1 [Example 4],228 nM,24 min,–,–
Cc1ccnc2[nH]c([C@@H]3CN(C(=O)OCc4ccc(F)cc4)CCO3)nc12 [Example 6],475 nM,40 min,44.4 ×10⁻⁶ cm/s,1.48
Cc1cccc(COC(=O)N2CCO[C@H](c3nc4cccnc4[nH]3)C2)c1 [Example 9],293 nM,22 min,49 ×10⁻⁶ cm/s,1.16
